How the values were obtained:
Format in all cases: cell-based
[1] = system: EBC-1 lung cancer cell line; experiment: EBC-1 cell proliferation, CellTiter-Glo assay; details: Homo sapiens, 120 h; Ebc-1 cell viability, CTG assay, 5 days of treatment; read-out: CTG 5 day Ebc1 GI50
Procedure, shortened: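 CellTiter-Glo read-out after 5-day compound treatment, normalised to untreated cells, with GI50 derived by four-parameter logistic regression. Ten concentrations spanning 0.508 nM–10 μM were added to 1000 EBC-1 cells per well the day after seeding. Assays required at least one cell doubling versus Day 0.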

Bcl-xL = molecular target: T1, Bcl-xL (Homo sapiens, UniProt Q07817); experiment: HCT116 Bcl-xL degradation, capillary-based immunoassay (WES); details: for DC50: HCT116, 24 h, 9-point serial dilution
T1 construct: Measured levels of Bcl-xL protein of HCT116 cells treated with the tested compounds; host or cells: HCT116
Procedure, shortened: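 Bcl-xL protein level by capillary WES immunoassay in HCT116 lysates, as % of untreated after cofilin normalization. Compound exposure was 24 h at 10 and 100 nM and/or a 9-point series, in quadruplicate. Four-parameter fitting gave the DC50.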

HiBiT-tagged BCL-xL = molecular target: T2, HiBiT-tagged BCL-xL (Homo sapiens, UniProt Q07817); experiment: NCI-H1650 BCL-xL protein levels, Nano-Glo HiBiT Lytic Detection; details: NCI-H1650 expressing HiBiT-tagged BCL-xL, overnight incubation, read-out: Bcl-xl HIBIT NCIH1650 DC50
T2 construct: expressed in transfected cells; host or cells: NCI-H1650 (ATCC No. CRL-5883), engineered HiBiT cell line
Procedure, shortened: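 HiBiT luminescence after cell lysis with LgBiT/furimazine reagent reported BCL-xL levels, expressed relative to untreated wells and fitted with a four-parameter logistic equation. Engineered NCI-H1650 cells were exposed overnight at 37° C to compound at final 0.508 nM-10 μM (10 points, triplicate plates).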

MOLT-4 cells = experiment: MOLT-4 cell viability, CTG assay; details: Homo sapiens, MOLT-4, 48 h
Procedure, shortened: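 Viability read as total ATP luminescence (CTG) after 48 h compound treatment, 11 points at 5-fold spacing in triplicate, cells in RPMI 1640/10% FBS. IC50 is the concentration halving signal relative to control, four-parameter fit, averaged over at least 2 experiments.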

T1 sequence (Q07817 whole entry): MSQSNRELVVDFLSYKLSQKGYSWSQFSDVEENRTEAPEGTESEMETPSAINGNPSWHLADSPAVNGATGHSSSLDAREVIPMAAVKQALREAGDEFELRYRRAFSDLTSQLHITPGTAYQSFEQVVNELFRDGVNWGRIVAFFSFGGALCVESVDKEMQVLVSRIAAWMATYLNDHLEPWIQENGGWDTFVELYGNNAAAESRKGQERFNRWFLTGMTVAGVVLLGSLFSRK
T2 sequence (Q07817 whole entry): as above

| Structure (SMILES) | GI50 [1] | DC50 (Bcl-xL) | DC50 (HiBiT-tagged BCL-xL) | IC50 (MOLT-4 cells) | remaining activity at 0.01 µM (Bcl-xL; HCT-116, HCT116, 10 nM, 24 h, % of untreated cells) | remaining activity at 0.1 µM (Bcl-xL; HCT-116, HCT116, 100 nM, 24 h, % of untreated cells) |
| --- | --- | --- | --- | --- | --- | --- |
| Cc1cc(N(CCCCN(C)C(=O)CCCCCCCCCCCCC(=O)N[C@H](C(=O)N2C[C@H](O)C[C@H]2C(=O)N[C@@H](C)c2ccc(-c3scnc3C)cc2)C(C)(C)C)c2ccc(-c3cnn(CC45CC6(C)CC(C)(C4)CC(OCCN(C)C)(C6)C5)c3C)c(C(=O)O)n2)nnc1Nc1nc2ccccc2s1 [Example 116, 6-[[6-(1,3-benzothiazol-2-ylamino)-5-methyl-pyridazin-3-yl]-[4-[[14-[[(1S)-1-[(2S,4R)-4-hydroxy-2-[[(1S)-1-[4-(4-methylthiazol-5-yl)phenyl]ethyl]carbamoyl]pyrrolidine-1-carbonyl]-2,2-dimethyl-propyl]amino]-14-oxo-tetradecanoyl]-methyl-amino]butyl]amino]-3-[1-[[3-[2-(dimethylamino)ethoxy]-5,7-dimethyl-1-adamantyl]methyl]-5-methyl-pyrazol-4-yl]pyridine-2-carboxylic acid] | 45 nM | 3.6 nM | 1 nM | 16.1 nM | – | – |
| Cc1ncsc1-c1ccc([C@H](C)NC(=O)[C@@H]2C[C@@H](O)CN2C(=O)[C@@H](NC(=O)CCCCCCCCNC(=O)c2nc(N3CCCc4c3nnc(Nc3nc5ccccc5s3)c4C)ccc2-c2cnn(C[C@]34C[C@]5(C)C[C@](C)(C3)C[C@@](OCCN3CCCC3)(C5)C4)c2C)C(C)(C)C)cc1 [Example 124, 6-[3-(1,3-benzothiazol-2-ylamino)-4-methyl-6,7-dihydro-5H-pyrido[2,3-c]pyridazin-8-yl]-3-[1-[[3,5-dimethyl-7-(2-pyrrolidin-1-ylethoxy)-1-adamantyl]methyl]-5-methyl-pyrazol-4-yl]-N-[9-[[(1S)-1-[(2S,4R)-4-hydroxy-2-[[(1S)-1-[4-(4-methylthiazol-5-yl)phenyl]ethyl]carbamoyl]pyrrolidine-1-carbonyl]-2,2-dimethyl-propyl]amino]-9-oxo-nonyl]pyridine-2-carboxamide] | 25 nM | 1.01 nM | 1 nM | 3.69 nM | – | – |
| Cc1ncsc1-c1ccc([C@H](C)NC(=O)[C@@H]2C[C@@H](O)CN2C(=O)[C@@H](NC(=O)CCCCCCCCCN(C)CCOC23CC4(C)CC(C)(CC(Cn5ncc(-c6ccc(N7CCCc8c7nnc(Nc7nc9ccccc9s7)c8C)nc6C(=O)O)c5C)(C4)C2)C3)C(C)(C)C)cc1 [Example 133, 6-[3-(1,3-benzothiazol-2-ylamino)-4-methyl-6,7-dihydro-5H-pyrido[2,3-c]pyridazin-8-yl]-3-[1-[[3-[2-[[10-[[(1S)-1-[(2S,4R)-4-hydroxy-2-[[(1S)-1-[4-(4-methylthiazol-5-yl)phenyl]ethyl]carbamoyl]pyrrolidine-1-carbonyl]-2,2-dimethyl-propyl]amino]-10-oxo-decyl]-methyl-amino]ethoxy]-5,7-dimethyl-1-adamantyl]methyl]-5-methyl-pyrazol-4-yl]pyridine-2-carboxylic acid] | 4 nM | – | > 1670 nM | 10.2 nM | 112% | 105% |
| Cc1ncsc1-c1ccc([C@H](C)NC(=O)[C@@H]2C[C@@H](O)CN2C(=O)[C@@H](NC(=O)CCOCCN(C)CCOC23CC4(C)CC(C)(CC(Cn5ncc(-c6ccc(N7CCCc8c7nnc(Nc7nc9ccccc9s7)c8C)nc6C(=O)O)c5C)(C4)C2)C3)C(C)(C)C)cc1 [Example 103, 6-[3-(1,3-benzothiazol-2-ylamino)-4-methyl-6,7-dihydro-5H-pyrido[2,3-c]pyridazin-8-yl]-3-[1-[[3-[2-[2-[3-[[(1S)-1-[(2S,4R)-4-hydroxy-2-[[(1S)-1-[4-(4-methylthiazol-5-yl)phenyl]ethyl]carbamoyl]pyrrolidine-1-carbonyl]-2,2-dimethyl-propyl]amino]-3-oxo-propoxy]ethyl-methyl-amino]ethoxy]-5,7-dimethyl-1-adamantyl]methyl]-5-methyl-pyrazol-4-yl]pyridine-2-carboxylic acid] | 378 nM | 13.6 nM | > 1670 nM | 63.4 nM | – | – |
| Cc1ncsc1-c1ccc(CNC(=O)[C@@H]2C[C@@H](O)CN2C(=O)[C@@H](NC(=O)C2(F)CC2)C(C)(C)SCCCCCCCCCCCCCCN(C)CCOC23CC4(C)CC(C)(CC(Cn5ncc(-c6ccc(N7CCCc8c7nnc(Nc7nc9ccccc9s7)c8C)nc6C(=O)O)c5C)(C4)C2)C3)cc1 [Example 80, 6-[3-(1,3-benzothiazol-2-ylamino)-4-methyl-6,7-dihydro-5H-pyrido[2,3-c]pyridazin-8-yl]-3-[1-[[3-[2-[14-[(2R)-2-[(1-fluorocyclopropanecarbonyl)amino]-3-[(2S,4R)-4-hydroxy-2-[[4-(4-methylthiazol-5-yl)phenyl]methylcarbamoyl]pyrrolidin-1-yl]-1,1-dimethyl-3-oxo-propyl]sulfanyltetradecyl-methyl-amino]ethoxy]-5,7-dimethyl-1-adamantyl]methyl]-5-methyl-pyrazol-4-yl]pyridine-2-carboxylic acid] | 92 nM | 3.57 nM | > 1670 nM | 6.11 nM | – | – |
| Cc1ncsc1-c1ccc([C@H](C)NC(=O)[C@@H]2C[C@@H](O)CN2C(=O)[C@@H](NC(=O)C2CCN(C(=O)CCCCCCCCCCN(C)CCOC34CC5(C)CC(C)(CC(Cn6ncc(-c7ccc(N8CCCc9c8nnc(Nc8nc%10ccccc%10s8)c9C)nc7C(=O)O)c6C)(C5)C3)C4)CC2)C(C)(C)C)cc1 [Example 82, 6-[3-(1,3-benzothiazol-2-ylamino)-4-methyl-6,7-dihydro-5H-pyrido[2,3-c]pyridazin-8-yl]-3-[1-[[3-[2-[[11-[4-[[(1S)-1-[(2S,4R)-4-hydroxy-2-[[(1S)-1-[4-(4-methylthiazol-5-yl)phenyl]ethyl]carbamoyl]pyrrolidine-1-carbonyl]-2,2-dimethyl-propyl]carbamoyl]-1-piperidyl]-11-oxo-undecyl]-methyl-amino]ethoxy]-5,7-dimethyl-1-adamantyl]methyl]-5-methyl-pyrazol-4-yl]pyridine-2-carboxylic acid] | 157 nM | > 316 nM | > 1670 nM | 10 nM | – | – |
| Cc1ncsc1-c1ccc([C@H](C)NC(=O)[C@@H]2C[C@@H](O)CN2C(=O)[C@@H](NC(=O)CCCCCCCCCNC(=O)c2nc(N3CCCc4c3nnc(Nc3nc5ccccc5s3)c4C)ccc2-c2cnn(CC34CC5(C)CC(C)(C3)CC(OCCN3CCCC3)(C5)C4)c2C)C(C)(C)C)cc1 [Example 130, 6-[3-(1,3-benzothiazol-2-ylamino)-4-methyl-6,7-dihydro-5H-pyrido[2,3-c]pyridazin-8-yl]-3-[1-[[3,5-dimethyl-7-(2-pyrrolidin-1-ylethoxy)-1-adamantyl]methyl]-5-methyl-pyrazol-4-yl]-N-[10-[[(1S)-1-[(2S,4R)-4-hydroxy-2-[[(1S)-1-[4-(4-methylthiazol-5-yl)phenyl]ethyl]carbamoyl]pyrrolidine-1-carbonyl]-2,2-dimethyl-propyl]amino]-10-oxo-decyl]pyridine-2-carboxamide] | 2 nM | 0.857 nM | 1 nM | 4.04 nM | – | – |
| Cc1ncsc1-c1ccc([C@H](C)NC(=O)[C@@H]2C[C@@H](O)CN2C(=O)[C@@H](NC(=O)CCCCCCCCCCCCCN(C)CCOC23CC4(C)CC(C)(CC(Cn5ncc(-c6ccc(N7CCCc8c7nnc(Nc7nc9ccccc9s7)c8C)nc6C(N)=O)c5C)(C4)C2)C3)C(C)(C)C)cc1 [Example 154, 6-[3-(1,3-benzothiazol-2-ylamino)-4-methyl-6,7-dihydro-5H-pyrido[2,3-c]pyridazin-8-yl]-3-[1-[[3-[2-[[14-[[(1S)-1-[(2S,4R)-4-hydroxy-2-[[(1S)-1-[4-(4-methylthiazol-5-yl)phenyl]ethyl]carbamoyl]pyrrolidine-1-carbonyl]-2,2-dimethyl-propyl]amino]-14-oxo-tetradecyl]-methyl-amino]ethoxy]-5,7-dimethyl-1-adamantyl]methyl]-5-methyl-pyrazol-4-yl]pyridine-2-carboxamide] | 222 nM | 10.3 nM | > 1670 nM | 6.59 nM | – | – |
